Assay results: publication PMC7529893, “Structural basis for substrate recognition and chemical inhibition of oncogenic MAGE ubiquitin ligases” (Nature Communications, 2020)

The compounds below were run against T1, MAGE-A11:PCF11 interaction (GST-MAGE-A11 MHD and FAM-PCF11_4) (Homo sapiens, UniProt P43364) (assay: TR-FRET dose response test of compounds for disruption of MAGE-A11:PCF11 binding). Conditions: Dose response TR-FRET screening of nine scaffold groups against MAGE-A11:PCF11; read-out: consensus IC50.
T1 construct: GST-MAGE-A11 MHD (human MAGE-A11 MHD amino acid 218-429); made in house; host or cells: E. coli BL21(DE3)
T1 sequence (P43364 218-429): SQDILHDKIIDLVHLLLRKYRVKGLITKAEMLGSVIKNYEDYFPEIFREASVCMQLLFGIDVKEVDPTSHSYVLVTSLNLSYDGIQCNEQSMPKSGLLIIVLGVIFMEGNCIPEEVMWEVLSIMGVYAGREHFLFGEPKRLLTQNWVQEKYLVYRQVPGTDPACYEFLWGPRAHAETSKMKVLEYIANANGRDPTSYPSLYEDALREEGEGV
Method: The TR-FRET assay buffer with a formula of 50 mM Tris pH 7.5, 20 mM MgCl2, 0.1 mg/ml BSA and 1 mM DTT was freshly prepared before each experiment. All TR-FRET assays were performed in black 384-well plates with 20 µl/well assay volume in the TR-FRET assay buffer at room temperature (~25 °C). All peptides or compounds were solubilized in DMSO. To test the competitive activity of peptides or compounds against the interaction between GST-MAGE-A11 MHD and FAM-PCF11_4 peptide, 10 µl/well peptide or compound at specified concentration was dispensed into a black 384-well low volume plate, followed by 5 µl/well FAM-PCF11_4 (800 nM), 5 µl/well Tb-anti-GST (20 nM), and GST-MAGE-A11 MHD (20 nM). The assay components in each well was then mixed by shaking the plate on an IKA MTS 2/4 digital microtiter plate shaker (IKA Works; Wilmington, NC, USA) for 1 min. The plate was further centrifuged in an Eppendorf 5810 centrifuge with an A-4-62 swing-bucket rotor (Eppendorf AG, Hamburg, Germany) at 201 g for 30 s. The plate was then incubated for 90 min with a lid to avoid light exposure to the assay components. After incubation, the fluorescent emission signals at 520 nm and 490 nm channels of individual wells were measured with a PHERAstar FS plate reader (BMG Labtech; Durham, NC, USA) by using a 340 nm excitation filter, 100 µs delay time, and 200 µs integration time. The TR-FRET fluorescence emission ratio (TR-FRET signal) for each well was presented as 10,000 × 520 nm/490 nm, which was used directly for curve fitting, or further converted to %Inhibition based on the respective positive and negative controls. The graphic software GraphPad Prism 4.81 (GraphPad Software; La Jolla, CA, USA) was used to generate curves and derive IC50 values of tested peptides or compounds, if applicable.
TR-FRET screen for identifying MAGE-A11 small molecule inhibitors was performed as follows. The primary one-concentration screening and subsequent 10 or 20-concentration dose-response tests were accomplished with an automated High Throughput Screening system (HighRes Biosolutions, Beverly, MA)[30]. In the primary screening, 15 µl/well FAM-PCF11_4 (267 nM) was first dispensed with a Multidrop Combi Reagent Dispenser (Thermo Fisher Scientific, Waltham, MA) to black 384-well low-volume assay plates. The plates were spun down with a Velocity11 VSpin microplate centrifuge (Agilent Technologies, Santa Clara, CA). In total, 30 nl/well of 10 mM compound/DMSO solutions, or DMSO alone, were transferred from compound plates (the St. Jude FDA drug and bioactive library, Drug-like library and Lead-like library) or a control plate to the assay plates with a Pin Tool (V&P Scientific, San Diego, CA). The compounds were arrayed in columns 3–12 and columns 15–24 of compound plates. The controls were arrayed in columns 1, 2, 13, and 14 of a compound plate. In all, 5 µl/well Tb-anti-GST (20 nM) and GST-MAGE-A11 (20 nM) or 5 µl/well Tb-anti-GST (20 nM) alone was then dispensed to selected wells with a Multidrop Combi Reagent Dispenser. The final assay volume was 20 µl/well. The final DMSO concentration was 0.25% (v/v) (0.1% (v/v) from the FAM-PCF11_4 DMSO stock solution and 0.15% (v/v) from the compound-DMSO solution or the DMSO for the control wells). The final tested compound concentration was 15 µM. The final FAM-PCF11_4 concentration was 200 nM and the final Tb-anti-GST concentration was 5 nM. The final GST-MAGE-A11 concentration was 5 nM except for those selected positive control wells in which GST-MAGE-A11 was not presented. The plates were then shaken with a big bear shaker (Big Bear Automation, Santa Clara, California) and spun down with the Velocity11 VSpin microplate centrifuge for 20 s. The plates were then incubated at room temperature in a Liconic incubator (Liconic US, Woburn, MA) for 90 min. The TR-FRET signals for individual wells were measured with a PHERAstar FS plate reader. The %Inhibition of each tested inhibitor was calculated by using Eq. 1.

| SMILES | IC50 [µM] |
| --- | --- |
| CC1CN(c2oc(-c3ccccc3F)nc2S(=O)(=O)c2ccc(F)cc2)CC(C)O1 (centres unmarked) [SJ000329067-1] | 27.3 |
| NC1=C(Nc2ccccc2)C(=O)c2ccccc2C1=O [SJ000562543-1] | 60.8 |
| NC1=C(N2CCCCC2)C(=O)c2ccccc2C1=O [SJ000294373-2] | 20.1 |
| Cc1cc(C)c(C2Nc3ccccc3C(=O)N2CCCN2CCOCC2)cc1C (centres unmarked) [SJ000803761-1] | 62.3 |
| CCCCCOc1ccc(N(C(C)=O)C2=C(Cl)C(=O)c3ccccc3C2=O)cc1 [SJ000032724-1] | 28.3 |
| CCOc1ccc(C2Nc3ccccc3C(=O)N2CCCN2CCOCC2)cc1 (centres unmarked) [SJ000803759-1] | 67.7 |
| CCCS(=O)(=O)N1CCN(Cc2ccc3c(c2)c2ccccc2n3CC)CC1 [SJ000167951-1] | 19.2 |
| O=C1c2ccccc2NC(c2ccc(F)cc2F)N1CCCN1CCOCC1 (centres unmarked) [SJ000795275-1] | 67.8 |
| COc1ccc(Oc2ccc3c(NCCCNCc4cc(F)ccc4OC)ccnc3c2)cc1 [SJ000311221-1] | 46.4 |
| CSc1ccc(C2Nc3ccccc3C(=O)N2CCCN2CCOCC2)cc1 (centres unmarked) [SJ000803762-1] | > 70 |
| CCOC(=O)N1CCN(Cc2ccc3c(c2)c2ccccc2n3CC)CC1 [SJ000147352-1] | 29.5 |
| CS(=O)(=O)c1ccc(C2=C(c3ccccc3)C(=O)OC2)cc1 [SJ000285362-5] | 67.6 |
| COc1cccc(CNCCCNc2ccnc3cc(Cc4ccc(C#N)cc4)ccc23)c1O [SJ000311303-1] | 51 |
| CN(C)c1ccc(NC2=C(Cl)C(=O)c3ccccc3C2=O)cc1 [SJ000109503-1] | 3.3 |
| Cc1ccc(S(=O)(=O)c2nc(-c3ccccc3Cl)oc2N2CCOCC2)cc1 [SJ000230856-1] | 4.34 |
| COc1cc(Cc2ccc3c(NCCCNCc4cc(F)ccc4OC)ccnc3c2)cc(OC)c1 [SJ000311313-1] | 33.8 |
| CCCCCCCCOc1ccc(NC2=C(N)C(=O)c3ccccc3C2=O)cc1 [SJ000562629-1] | 54.8 |
| COc1cccc(CNCCCNc2ccnc3cc(Cc4cccc(C(F)(F)F)c4)ccc23)c1O [SJ000311299-1] | 27.5 |
| COc1cccc(-c2nc(S(=O)(=O)c3ccc(C)cc3)c(N3CCOCC3)o2)c1 [SJ000038123-1] | 17.4 |
| C=CCn1c(=O)c2c(nc(-c3ccccc3)n2C)n(C)c1=O [SJ000832270-1] | > 70 |
| COc1ccc2cc(C3Nc4ccccc4C(=O)N3CCCN3CCOCC3)ccc2c1 (centres unmarked) [SJ000803763-1] | 67.4 |
| O=S(=O)(c1ccccc1)c1nc(-c2ccc(Br)cc2)oc1N1CCOCC1 [SJ000244320-1] | 8.63 |
| COc1ccc(F)cc1CNCCCNc1ccnc2cc(-c3ccc(C(C)(C)C)cc3)ccc12 [SJ000311289-1] | 4.62 |

Now from value to compound:

| IC50 [µM] | SMILES |
| --- | --- |
| 16.3 | Cc1cc(C)cc(Cc2ccc3c(NCCCNCc4cccc5c4OCO5)ccnc3c2)c1 [SJ000311320-1] |
| 29.9 | COc1ccc(F)cc1CNCCCNc1ccnc2cc(-c3ccc4c(c3)OCO4)ccc12 [SJ000311293-1] |
| 43.6 | COc1cccc(CNCCCNc2ccnc3cc(Cc4ccc(F)cc4)ccc23)c1O [SJ000311243-1] |
| 12.8 | FC(F)(F)c1cccc(Cc2ccc3c(NCCCNCc4cccc5c4OCO5)ccnc3c2)c1 [SJ000311300-1] |
| 18.3 | COc1ccc(F)cc1CNCCCNc1ccnc2cc(Cc3ccccc3)ccc12 [SJ000311309-1] |
| 28.9 | CCC(CC)c1ccc2c(NCCCNCc3cccc4c3OCO4)ccnc2c1 [SJ000311268-1] |
| 36.9 | COc1cccc(Oc2ccc3c(NCCCNCc4cccc5c4OCO5)ccnc3c2)c1 [SJ000311216-1] |
| 67.1 | Clc1ccc2c(NCCCNCc3ccc4[nH]ccc4c3)ccnc2c1 [SJ000520909-2] |
| 59.6 | Fc1ccc(Oc2ccc3c(NCCCNCc4cccc5c4OCO5)ccnc3c2)cc1 [SJ000311224-1] |
| 26.5 | COc1cccc(CNCCCNc2ccnc3cc(CCc4ccccc4)ccc23)c1O [SJ000311255-1] |
| 30.4 | CC(C)(C)c1ccc(O)c(CNCCCNc2ccnc3cc(Cl)ccc23)c1 [SJ000311193-1] |
| 9.04 | COc1ccc(F)cc1CNCCCNc1ccnc2cc(Cc3cc(C)cc(C)c3)ccc12 [SJ000311321-1] |
| 9.95 | CCC(CC)c1ccc2c(NCCCNCc3cccc(OC)c3O)ccnc2c1 [SJ000311267-1] |
| 12.2 | COc1ccc(F)cc1CNCCCNc1ccnc2cc(Cc3c(Cl)cccc3Cl)ccc12 [SJ000311317-1] |
| 31.3 | COc1cc(Cc2ccc3c(NCCCNCc4cccc5c4OCO5)ccnc3c2)cc(OC)c1 [SJ000311312-1] |
| 26.3 | COc1ccc(F)cc1CNCCCNc1ccnc2cc(CC3CCCCC3)ccc12 [SJ000311253-1] |
| 66 | N#Cc1ccc(Cc2ccc3c(NCCCNCc4cccc5c4OCO5)ccnc3c2)cc1 [SJ000311304-1] |
| 42.3 | Fc1ccc(Cc2ccc3c(NCCCNCc4cccc5c4OCO5)ccnc3c2)cc1 [SJ000311244-1] |
| 40.9 | CCc1ccc(CNCCCNc2ccnc3cc(C(F)(F)F)ccc23)cc1 [SJ000521067-1] |
| 6.87 | CC(C)(C)c1ccc(-c2ccc3c(NCCCNCc4cccc5c4OCO5)ccnc3c2)cc1 [SJ000311288-1] |
| 43.7 | COc1ccc(Oc2ccc3c(NCCCNCc4cccc5c4OCO5)ccnc3c2)cc1 [SJ000311220-1] |

Same assay, conditions: Supplementary Data 3, 59 quinoline compounds; read-out: TR-FRET IC50

| SMILES | IC50 [µM] |
| --- | --- |
| Fc1ccc(CN(CCCCNc2ccnc3cc(Cl)ccc23)Cc2ccccc2)cc1 [SJ000522725-1, Fc1ccc(CN(CCCCNc2ccnc3cc(Cl)ccc23)Cc4ccccc4)cc1] | > 70 |
| CCCN(CCCNc1ccnc2cc(Cl)ccc12)Cc1ccc(CC)cc1 [SJ000523001-1, CCCN(CCCNc1ccnc2cc(Cl)ccc12)Cc3ccc(CC)cc3] | > 70 |
| CCC(C)CN(CCCCNc1ccnc2cc(Cl)ccc12)Cc1ccccc1 (centres unmarked) [SJ000361208-2, CCC(C)CN(CCCCNc1ccnc2cc(Cl)ccc12)Cc3ccccc3] | > 70 |
| CCCN(CCCNc1ccnc2cc(Cl)ccc12)Cc1ccc(-c2ccccc2)cc1 [SJ000523039-1, CCCN(CCCNc1ccnc2cc(Cl)ccc12)Cc3ccc(cc3)c4ccccc4] | > 70 |
| CCCN(CCCNc1ccnc2cc(C(F)(F)F)ccc12)Cc1ccc(CC)cc1 [SJ000521009-2, CCCN(CCCNc1ccnc2cc(ccc12)C(F)(F)F)Cc3ccc(CC)cc3] | > 70 |

Continued, values first:

| IC50 [µM] | SMILES |
| --- | --- |
| 33 | FC(F)(F)c1ccc2c(NCCCNCc3ccc[nH]3)ccnc2c1 [SJ000361105-1, FC(F)(F)c1ccc2c(NCCCNCc3ccc[nH]3)ccnc2c1] |
| 38.4 | Clc1cccc(Cl)c1Cc1ccc2c(NCCCNCc3ccco3)ccnc2c1 [SJ000311314-1, Clc1cccc(Cl)c1Cc2ccc3c(NCCCNCc4occc4)ccnc3c2] |
| 22.8 | Clc1ccc2c(NCCCNCc3ccc[nH]3)ccnc2c1 [SJ000575192-1, Clc1ccc2c(NCCCNCc3ccc[nH]3)ccnc2c1] |
| > 70 | c1coc(CNCCCNc2ccnc3cc(C4CCCCC4)ccc23)c1 [SJ000311262-1, C(CNCc1occc1)CNc2ccnc3cc(ccc23)C4CCCCC4] |
